Structures are written as SMILES. pKi: −log10 of the molar value.

One assay has as its system α2-adrenergic receptor. Format: binding, calf. Conditions: for α1/α2 (ratio of Ki): Ki α1 / Ki α2, calf cerebral cortex; for pKi: [3H] clonidine binding site, calf cerebral cortex.
For another assay, the target named is α1-adrenergic receptor. As to the kind of experiment: α1-adrenergic receptor binding ([3H] prazosin binding site). Conditions: calf cerebral cortex. How it is done: Extent of binding to the α1 -adrenergic receptor was determined by the method of Greengrass and Bremner, Eur. J. Pharmacol., 55, 323 (1979) and is expressed in Table II as Ki, representing the affinity of each compound for the [^3 H] prazosin binding site in calf cerebral cortex.

Assay [1] concerns sedation produced by clonidine. The note with it: in vivo; cited from earlier work.
The test system of assay [2] is locomotor depressant effects of methyldopa. The note with it: rats; cited from earlier work.
The test system of assay [3] is clonidine-induced sedation. Conditions: man; cited from earlier work.
The test system of assay [4] is α1- or α2-adrenergic receptors. Conditions: cited from earlier work.
For the next assay, the system named is norepinephrine reuptake. The note with it: cited from earlier work.

Regarding `CN1CCN(c2ncccc2Br)CC1` [Compound 2], in the assay on α2-adrenergic receptor, the “α1/α2 (ratio of Ki)” value was 55 and the pKi (usually the negative decadic logarithm of the Ki, by convention in mol/L) was 8.54. Also, on α1-adrenergic receptor, the pKi was 6.80.

Turning to `COC(=O)[C@@H]1[C@H]2C[C@H]3c4[nH]c5ccccc5c4CCN3C[C@@H]2CC[C@@H]1O` [yohimbine], the “effect on sedation produced by clonidine” value in assay [1] was “antagonizes the sedation produced by clonidine”. For the same molecule, the “effect on locomotor depressant effects of methyldopa” value in assay [2] is listed as “antagonizes”. In assay [3], the “effect on clonidine-induced sedation” value is “reduce clonidine-induced sedation in man”.

With `c1ccc(N2CCNCC2)nc1` [Compound 4], in the assay with α2-adrenergic receptor, the “α1/α2 (ratio of Ki)” value is given as 65 and the pKi is 7.43. Moreover, the pKi on α1-adrenergic receptor is 5.62.

Take `Cl.Cl.Ic1cccnc1N1CCNCC1` [Compound 1, 1-(3-Iodo-2-pyridinyl)piperazine Dihydrochloride]: in the assay with α2-adrenergic receptor, the “α1/α2 (ratio of Ki)” value was 38 and the pKi was 7.38. On α1-adrenergic receptor, this molecule had a pKi of 5.80.

As to `CN1CCN(c2ncccc2F)CC1` [Compound 6], in the assay on α2-adrenergic receptor, the “α1/α2 (ratio of Ki)” value is 98 and the pKi is 8.30. Further, the pKi at α1-adrenergic receptor is 6.31.

Consider `O=[N+]([O-])c1cccnc1N1CCNCC1` [Compound 5, 1-(3-Nitro-2-pyridinyl)piperazine], for which the “α1/α2 (ratio of Ki)” value in the assay on α2-adrenergic receptor was found to be 146. Further, the pKi is 7.59 at α2-adrenergic receptor and 5.42 at α1-adrenergic receptor.

Turning to `CN1CCN(c2ncccc2Cl)CC1` [Compound 7], the results for the pKi at α2-adrenergic receptor and on α1-adrenergic receptor were 8.57 and 6.67, respectively.

As for `CN1CCN2c3ccccc3Cc3ccccc3C2C1` (centres unmarked) [Mianserin], the “blockade of α2-adrenergic receptors” value in assay [4] is reported as “blocks α2 -adrenergic receptors”. Further, the “selectivity for α1- or α2-adrenergic receptors” value in assay [4] (in vivo blockade suggested at about the same dose) was “fails to exhibit any important selectivity”. In addition, the “in vivo norepinephrine reuptake inhibiting properties” value in the assay with norepinephrine reuptake is listed as “minimal”.

For `FC(F)(F)c1cccnc1N1CCNCC1` [Compound 3], the “α1/α2 (ratio of Ki)” value in the assay with α2-adrenergic receptor is recorded as 29. For the same molecule, the pKi was 7.01 at α2-adrenergic receptor and 5.55 on α1-adrenergic receptor.

Values taken from patent publication US4442103A, “Treating sedation with 1-(3-substituted-2-pyridinyl) piperazines” (Merck & Co., Inc., priority 1982, dated 1984).
